Measurements taken from the supplement of paper PMC10883282.

Tests used:
Assay in all cases: relative viability vs DMSO control (72 h) (fraction); higher = more viable cells
KHOS-240S = system: KHOS-240S
Procedure, shortened: (§1)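 After seeding at densities set for 80–90% confluence in 384-well plates, sarcoma cell lines waited 24 h before 2.5 µl of serially diluted compound was added. Source plates held 10 mM down to 0.0002 mM. Plates were incubated 72 h at 37 °C with 5% CO2, with 0.1% DMSO vehicle and a 5 µM positive control, and relative viability was taken from ATPLite as percent growth averaged over up to triplicate wells, with 1 set as full and 0 as none.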

SW982 = system: SW982
Procedure, shortened: as §1

HT1080 = system: HT1080
Procedure, shortened: as §1

SW1353 = system: SW1353
Procedure, shortened: as §1

RD-ES = system: RD-ES
Procedure, shortened: as §1

CCCCCCCCCCCCCCCCCCOP(=O)([O-])OC1CC[N+](C)(C)CC1 [Perifosine]
relative viability
Details	HT1080	KHOS-240S	RD-ES	SW982	SW1353
0.00017 µM	1.1	1.09	0.985	1.02	1.11
0.00051 µM	1.083	1.1	1	1.04	1.1
0.00152 µM	1.07	1.11	1.03	1.06	1.09
0.00457 µM	1.06	1.1	1.002	1.08	1.08
0.01372 µM	1.063	1.1	0.978	1.1	1.04
0.04115 µM	1.06	1.09	0.989	1.08	1.04
0.1235 µM	1.04	1.09	1.02	1.1	1.05
0.3704 µM	1.0633	1.08	1.01	1.08	1.07
1.111 µM	1.04	1.09	0.985	1.06	1.03
3.333 µM	1.037	1.04	0.983	1.06	1.02
10 µM	1.05	0.818	0.996	0.88	1.06

Cc1cn(-c2cc(NC(=O)c3ccc(C)c(Nc4nccc(-c5cnccn5)n4)c3)cc(C(F)(F)F)c2)cn1 [Radotinib]
relative viability
Details	HT1080	KHOS-240S	RD-ES	SW982	SW1353
0.00017 µM	1.07	1.07	0.982	1.066	1.02
0.00051 µM	1.06	1.07	1.02	1.07	1.023
0.00152 µM	1.07	1.07	1.01	1.08	1.06
0.00457 µM	1.07	1.07	1.02	1.07	1.06
0.01372 µM	1.07	1.05	1.005	1.069	1.06
0.04115 µM	1.06	1.06	1.01	1.08	1.1
0.1235 µM	1.07	1.07	1.03	1.1	1.19
0.3704 µM	1.09	1.05	1.01	1.11	1.21
1.111 µM	1.03	1.04	1	1.11	1.25
3.333 µM	1.12	1.05	0.991	1.13	1.22
10 µM	1.06	1.02	1.01	1.12	1.17

NC(=O)c1cccc2cn(-c3ccc([C@@H]4CCCNC4)cc3)nc12 [Niraparib]
relative viability
Details	HT1080	KHOS-240S	RD-ES	SW982	SW1353
0.00017 µM	1.06	1.06	0.997	1.05	0.976
0.00051 µM	1.05	1.08	1.01	1.04	0.981
0.00152 µM	1.01	1.07	0.9697	1.05	0.969
0.00457 µM	1.04	1.07	0.988	1.02	0.958
0.01372 µM	1.01	1.06	0.966	1.06	0.927
0.04115 µM	1.01	1.07	0.966	1.07	0.965
0.1235 µM	1.041	1.06	0.962	1.06	0.956
0.3704 µM	1.02	1.06	0.899	1.01	0.964
1.111 µM	1.09	1.03	0.783	0.926	0.933
3.333 µM	1.09	1.01	0.504	0.791	0.942
10 µM	1.03	0.877	0.0364	0.635	0.904

COc1cc2c(Oc3ccc4[nH]c(C)cc4c3F)ccnc2cc1OCC1(N)CC1 [Anlotinib]
relative viability
Details	HT1080	KHOS-240S	RD-ES	SW982	SW1353
0.00017 µM	1.023	1.06	0.9225	1.034	0.9631
0.00051 µM	1.03	1.049	0.948	1.04	0.99
0.00152 µM	1.04	1.04	0.969	1.01	0.985
0.00457 µM	1.03	1.06	0.965	1.05	0.99
0.01372 µM	1.05	1.05	0.98	1.06	0.95
0.04115 µM	1.05	1.04	0.992	1.06	0.976
0.1235 µM	1.07	1.03	0.977	1.05	0.9632
0.3704 µM	1.08	0.993	0.9545	0.997	0.937
1.111 µM	1.1	0.892	0.925	0.956	0.88
3.333 µM	1.02	0.464	0.594	0.544	0.551
10 µM	0.0879	0.122	0.0858	0.206	0.254

C=CC(=O)Nc1cccc(Nc2nc(Nc3ccc(N4CCN(C(C)=O)CC4)cc3OC)ncc2C(F)(F)F)c1 [Rociletinib]
relative viability
Details	HT1080	KHOS-240S	RD-ES	SW982	SW1353
0.00017 µM	1.07	1.08	0.965	1.01	1.04
0.00051 µM	1.06	1.06	0.962	1.05	1
0.00152 µM	1.05	1.07	0.961	1.08	1.01
0.00457 µM	1.06	1.07	0.979	1.07	1.06
0.01372 µM	1.04	1.07	0.967	1.05	1
0.04115 µM	1.03	1.03	1	1.04	1.01
0.1235 µM	1.06	1.08	0.937	1.04	1.01
0.3704 µM	1.1	1.02	0.889	1.05	0.962
1.111 µM	1.03	0.928	0.673	0.911	0.769
3.333 µM	0.997	0.774	0.453	0.6095	0.594
10 µM	0.454	0.491	0.125	0.265	0.338
